Assay results from ChEMBL document CHEMBL4706479, “Novel Aryloxyethyl Derivatives of 1-(1-Benzoylpiperidin-4-yl)methanamine as the Extracellular Regulated Kinases 1/2 (ERK1/2) Phosphorylation-Preferring Serotonin 5-HT Receptor-Biased Agonists with Robust Antidepressant-like Activity” (J Med Chem, 2019).
Converted amounts (≈) assume the structure as drawn. The source made the active and inactive calls. The rule behind the calls is not given here.

Columns and labels:
[1] = target: Alpha-2A adrenergic receptor (Homo sapiens) (UniProt P08913); assay: Inhibition of adrenergic alpha-2A receptor (unknown origin) at 1 uM relative to control
[2] = target: Beta-2 adrenergic receptor (Homo sapiens) (UniProt P07550); assay: Inhibition of adrenergic beta2 receptor (unknown origin) at 10 uM relative to control
[3] = target: Muscarinic acetylcholine receptor M1 (Homo sapiens) (UniProt P11229); assay: Inhibition of muscarinic M1 receptor (unknown origin) at 10 uM relative to control
[4] = target: Kappa-type opioid receptor (Homo sapiens) (UniProt P41145); assay: Inhibition of kappa opioid receptor (unknown origin) at 10 uM relative to control
[5] = Protein binding in human plasma; format: ADME, cell-free; details: read-out: PPB (converted)
[6] = Apparent volume of distribution during terminal phase in Wistar rat at […], po measured after 60 mins by HPLC analysis; format: ADME, organism-based; details: in vivo, dose 2.5 mg/kg, read-out: Vz/F
[7] = target: Tyrosine-protein kinase Lck (Homo sapiens) (UniProt P06239); assay: Inhibition of LCK (unknown origin) at 10 uM relative to control
Rattus norvegicus [8] = assay: In vivo biased agonist activity at 5-HT1A receptor in rat prefrontal brain cortex assessed as increase in ERK1/2 phosphorylation levels at […], po administered as single dose by Alphalisa assay; format: functional, organism-based; details: time 5-60 min, TDE = time-dependent effect
[9] = target: 5-hydroxytryptamine receptor 2A (Homo sapiens) (UniProt P28223); assay: Inhibition of 5-HT2A (unknown origin) at 10 uM relative to control
Homo sapiens [10] = organism: Homo sapiens; assay: Inhibition of delta 2-type opioid receptor (unknown origin) at 10 uM relative to control
[11] = target: Beta-1 adrenergic receptor (Homo sapiens) (UniProt P08588); assay: Inhibition of adrenergic beta1 receptor (unknown origin) at 10 uM relative to control
[12] = target: Histamine H1 receptor (Homo sapiens) (UniProt P35367); assay: Displacement of [3H]-pyrilamine from human recombinant histamine H1 receptor stably expressed in CHO-K1 cell membranes at 1 uM measured after 60 mins by microbeta2 scintillation counting analysis relative to control; details: Cell membrane
[13] = target: Muscarinic acetylcholine receptor M2 (Homo sapiens) (UniProt P08172); assay: Inhibition of muscarinic M2 receptor (unknown origin) at 10 uM relative to control
[14] = target: Alpha-2A adrenergic receptor (Homo sapiens) (UniProt P08913); assay: Inhibition of adrenergic alpha-2A receptor (unknown origin) at 10 uM relative to control
[15] = target: Sodium-dependent serotonin transporter (Homo sapiens) (UniProt P31645); assay: Inhibition of serotonin transporter (unknown origin) at 10 uM relative to control
[16] = target: 5-hydroxytryptamine receptor 1D (Homo sapiens) (UniProt P28221); assay: Inhibition of 5-HT1D (unknown origin) at 1 uM relative to control
[17] = Aqueous solubility of compound in simulated gastric fluid at 200 uM; format: physicochemical
[18] = target: 5-hydroxytryptamine receptor 2B (Homo sapiens) (UniProt P41595); assay: Inhibition of 5-HT2B (unknown origin) at 10 uM relative to control
MAO-A = MAO-A (Homo sapiens, UniProt P21397); assay: Inhibition of MAO-A (unknown origin) at 10 uM relative to control
[19] = target: Muscarinic acetylcholine receptor M1 (Homo sapiens) (UniProt P11229); assay: Displacement of [3H]-scopolamine from human recombinant muscarinic M1 receptor stably expressed in CHO-K1 cell membranes at 1 uM measured after 120 mins by microbeta2 scintillation counting analysis relative to control; details: Cell membrane
[20] = Cmax in Wistar rat brain at […], po measured after 60 mins by HPLC analysis; format: ADME, organism-based; parameters: route oral, dose 2.5 mg/kg, time 60 min
[21] = Aqueous solubility of compound in simulated intestinal fluid at 200 uM; format: physicochemical
Rattus norvegicus [22] = assay: Antidepressant-like activity in Wistar rat assessed as maximum effective dose causing reduction in immobility time after oral administration with compound 60 mins prior to testing and measured for 5 mins test period by Porsolt-forced swim test; format: functional; details: time 65 min; 1.083 h
[23] = target: Muscarinic acetylcholine receptor M4 (Homo sapiens) (UniProt P08173); assay: Inhibition of muscarinic M4 receptor (unknown origin) at 1 uM relative to control
in vitro = details: human, Caco-2, pH 6.5
[24] = target: D(1A) dopamine receptor (Homo sapiens) (UniProt P21728); assay: Inhibition of dopamine D1 receptor (unknown origin) at 10 uM relative to control
Rattus norvegicus [25] = assay: Antidepressant-like activity in Wistar rat assessed as reduction in immobility time at 0.04 to […], po administered 60 mins prior to testing and measured for 5 mins test period in presence of 5-HT1A antagonist WAY100635 by Porsolt-forced swim test; format: functional, organism-based; details: dose lower 0.04 mg/kg, dose upper […], time 65.0 min
Homo sapiens [26] = organism: Homo sapiens; assay: Inhibition of NMDA glutamate receptor (unknown origin) at 10 uM relative to control
hERG (KCNH2) = hERG (KCNH2) (Homo sapiens, UniProt Q12809); assay: Inhibition of human ERG at 10 uM by patch clamp technique relative to control
[27] = In vivo biased agonist activity at 5-HT1A receptor in rat prefrontal brain cortex assessed as time required to cause maximum increase in ERK1/2 phosphorylation levels at […], po administered as single dose by Alphalisa assay; format: functional
CYP2D6 = CYP2D6 (Homo sapiens, UniProt P10635); assay: Inhibition of human recombinant CYP2D6 at 10 uM relative to control; format: ADME
[28] = target: Vasopressin V1a receptor (Homo sapiens) (UniProt P37288); assay: Inhibition of vasopressin V1a receptor (unknown origin) at 10 uM relative to control
[29] = target: Cannabinoid receptor 2 (Homo sapiens) (UniProt P34972); assay: Inhibition of cannabinoid receptor 2 (unknown origin) at 10 uM relative to control
[30] = target: 5-hydroxytryptamine receptor 6 (Homo sapiens) (UniProt P50406); assay: Inhibition of 5-HT6 (unknown origin) at 1 uM relative to control
[31] = Aqueous solubility of compound in pH 7.4 PBS buffer at 200 uM; format: physicochemical
[32] = target: Acetylcholinesterase (Homo sapiens) (UniProt P22303); assay: Inhibition of AChE (unknown origin) at 10 uM relative to control
[33] = target: Prostaglandin G/H synthase 1 (Homo sapiens) (UniProt P23219); assay: Inhibition of COX1 (unknown origin) at 10 uM relative to control
[34] = target: 5-hydroxytryptamine receptor 2A (Homo sapiens) (UniProt P28223); assay: Displacement of [3H]-ketanserin from human recombinant 5-HT2A receptor stably expressed in CHO-K1 cell membranes at 1 uM measured after 90 mins by microbeta2 scintillation counting analysis relative to control; details: Cell membrane
[35] = target: 5-hydroxytryptamine receptor 7 (Homo sapiens) (UniProt P34969); assay: Inhibition of 5-HT7 (unknown origin) at 1 uM relative to control
MDCK-II = assay: Inhibition of P-gp in human MDR1-MDCKII cells at 10 uM relative to control; format: cell-based; details: Canis lupus familiaris
[36] = target: Adenosine receptor A2a (Homo sapiens) (UniProt P29274); assay: Inhibition of adenosine receptor A2A (unknown origin) at 10 uM relative to control
Adenosine receptor A2a (Homo sapiens), sequence (P29274 whole entry): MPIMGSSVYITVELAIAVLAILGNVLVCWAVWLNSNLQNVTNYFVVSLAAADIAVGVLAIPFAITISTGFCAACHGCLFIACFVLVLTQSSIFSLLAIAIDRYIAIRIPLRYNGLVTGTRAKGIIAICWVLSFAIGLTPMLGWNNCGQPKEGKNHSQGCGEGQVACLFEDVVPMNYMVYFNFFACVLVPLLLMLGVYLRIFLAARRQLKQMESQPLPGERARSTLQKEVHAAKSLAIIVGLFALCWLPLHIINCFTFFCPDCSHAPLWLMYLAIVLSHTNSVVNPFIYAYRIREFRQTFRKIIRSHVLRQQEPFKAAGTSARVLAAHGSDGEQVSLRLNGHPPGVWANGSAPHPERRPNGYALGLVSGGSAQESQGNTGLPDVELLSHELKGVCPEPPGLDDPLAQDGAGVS

Alpha-2A adrenergic receptor (Homo sapiens), sequence (P08913 whole entry): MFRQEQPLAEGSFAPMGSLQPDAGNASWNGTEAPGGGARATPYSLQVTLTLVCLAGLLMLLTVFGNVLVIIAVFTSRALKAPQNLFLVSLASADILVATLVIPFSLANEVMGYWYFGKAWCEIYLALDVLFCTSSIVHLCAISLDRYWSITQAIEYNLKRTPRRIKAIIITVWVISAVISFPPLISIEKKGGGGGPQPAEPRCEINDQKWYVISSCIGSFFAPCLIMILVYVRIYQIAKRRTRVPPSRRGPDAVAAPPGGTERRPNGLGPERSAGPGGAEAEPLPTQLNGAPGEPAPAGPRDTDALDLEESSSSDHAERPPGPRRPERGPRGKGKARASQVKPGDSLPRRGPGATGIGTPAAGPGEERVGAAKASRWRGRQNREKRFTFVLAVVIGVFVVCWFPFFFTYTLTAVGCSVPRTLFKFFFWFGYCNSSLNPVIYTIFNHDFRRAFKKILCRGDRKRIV
Muscarinic acetylcholine receptor M1 (Homo sapiens), sequence (P11229 whole entry): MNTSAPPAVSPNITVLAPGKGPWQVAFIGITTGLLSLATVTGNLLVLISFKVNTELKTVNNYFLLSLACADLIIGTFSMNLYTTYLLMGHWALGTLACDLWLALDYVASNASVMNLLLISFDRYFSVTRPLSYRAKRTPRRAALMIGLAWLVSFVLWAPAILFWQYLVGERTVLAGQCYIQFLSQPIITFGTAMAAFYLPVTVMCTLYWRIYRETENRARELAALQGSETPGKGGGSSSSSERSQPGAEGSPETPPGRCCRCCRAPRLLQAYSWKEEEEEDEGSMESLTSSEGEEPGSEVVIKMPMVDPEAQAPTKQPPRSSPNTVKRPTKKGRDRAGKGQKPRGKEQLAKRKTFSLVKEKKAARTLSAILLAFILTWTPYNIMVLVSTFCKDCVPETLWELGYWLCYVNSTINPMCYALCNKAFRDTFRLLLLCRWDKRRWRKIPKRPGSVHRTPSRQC
5-hydroxytryptamine receptor 2A (Homo sapiens), sequence (P28223 whole entry): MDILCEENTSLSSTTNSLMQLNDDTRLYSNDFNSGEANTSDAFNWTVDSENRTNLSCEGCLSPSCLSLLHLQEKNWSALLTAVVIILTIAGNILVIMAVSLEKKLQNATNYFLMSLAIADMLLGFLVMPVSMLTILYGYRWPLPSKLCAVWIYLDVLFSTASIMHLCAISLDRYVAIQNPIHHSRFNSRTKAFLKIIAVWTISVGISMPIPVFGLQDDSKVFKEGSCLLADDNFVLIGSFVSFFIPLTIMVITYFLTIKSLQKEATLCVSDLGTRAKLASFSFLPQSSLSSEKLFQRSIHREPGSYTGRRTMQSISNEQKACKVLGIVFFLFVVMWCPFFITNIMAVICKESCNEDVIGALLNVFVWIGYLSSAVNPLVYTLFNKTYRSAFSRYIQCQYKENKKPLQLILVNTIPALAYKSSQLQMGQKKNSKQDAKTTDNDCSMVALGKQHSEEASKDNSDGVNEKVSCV
Acetylcholinesterase (Homo sapiens), sequence (P22303 whole entry): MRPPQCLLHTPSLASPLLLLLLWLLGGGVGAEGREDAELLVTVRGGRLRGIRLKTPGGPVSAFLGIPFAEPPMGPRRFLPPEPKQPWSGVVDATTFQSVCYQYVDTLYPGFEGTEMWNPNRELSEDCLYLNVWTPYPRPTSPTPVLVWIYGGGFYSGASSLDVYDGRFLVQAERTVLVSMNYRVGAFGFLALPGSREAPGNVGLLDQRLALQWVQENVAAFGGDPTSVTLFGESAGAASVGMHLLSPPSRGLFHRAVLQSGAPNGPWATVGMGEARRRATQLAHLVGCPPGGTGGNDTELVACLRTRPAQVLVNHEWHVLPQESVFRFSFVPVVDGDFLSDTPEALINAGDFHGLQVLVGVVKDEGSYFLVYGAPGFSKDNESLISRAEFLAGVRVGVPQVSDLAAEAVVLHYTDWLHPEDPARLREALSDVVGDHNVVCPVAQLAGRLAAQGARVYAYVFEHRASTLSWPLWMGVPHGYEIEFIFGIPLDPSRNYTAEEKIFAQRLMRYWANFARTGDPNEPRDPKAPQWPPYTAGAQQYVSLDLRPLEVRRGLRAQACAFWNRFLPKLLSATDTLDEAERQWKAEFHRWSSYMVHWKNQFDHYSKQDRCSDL
hERG (KCNH2), sequence (Q12809 whole entry): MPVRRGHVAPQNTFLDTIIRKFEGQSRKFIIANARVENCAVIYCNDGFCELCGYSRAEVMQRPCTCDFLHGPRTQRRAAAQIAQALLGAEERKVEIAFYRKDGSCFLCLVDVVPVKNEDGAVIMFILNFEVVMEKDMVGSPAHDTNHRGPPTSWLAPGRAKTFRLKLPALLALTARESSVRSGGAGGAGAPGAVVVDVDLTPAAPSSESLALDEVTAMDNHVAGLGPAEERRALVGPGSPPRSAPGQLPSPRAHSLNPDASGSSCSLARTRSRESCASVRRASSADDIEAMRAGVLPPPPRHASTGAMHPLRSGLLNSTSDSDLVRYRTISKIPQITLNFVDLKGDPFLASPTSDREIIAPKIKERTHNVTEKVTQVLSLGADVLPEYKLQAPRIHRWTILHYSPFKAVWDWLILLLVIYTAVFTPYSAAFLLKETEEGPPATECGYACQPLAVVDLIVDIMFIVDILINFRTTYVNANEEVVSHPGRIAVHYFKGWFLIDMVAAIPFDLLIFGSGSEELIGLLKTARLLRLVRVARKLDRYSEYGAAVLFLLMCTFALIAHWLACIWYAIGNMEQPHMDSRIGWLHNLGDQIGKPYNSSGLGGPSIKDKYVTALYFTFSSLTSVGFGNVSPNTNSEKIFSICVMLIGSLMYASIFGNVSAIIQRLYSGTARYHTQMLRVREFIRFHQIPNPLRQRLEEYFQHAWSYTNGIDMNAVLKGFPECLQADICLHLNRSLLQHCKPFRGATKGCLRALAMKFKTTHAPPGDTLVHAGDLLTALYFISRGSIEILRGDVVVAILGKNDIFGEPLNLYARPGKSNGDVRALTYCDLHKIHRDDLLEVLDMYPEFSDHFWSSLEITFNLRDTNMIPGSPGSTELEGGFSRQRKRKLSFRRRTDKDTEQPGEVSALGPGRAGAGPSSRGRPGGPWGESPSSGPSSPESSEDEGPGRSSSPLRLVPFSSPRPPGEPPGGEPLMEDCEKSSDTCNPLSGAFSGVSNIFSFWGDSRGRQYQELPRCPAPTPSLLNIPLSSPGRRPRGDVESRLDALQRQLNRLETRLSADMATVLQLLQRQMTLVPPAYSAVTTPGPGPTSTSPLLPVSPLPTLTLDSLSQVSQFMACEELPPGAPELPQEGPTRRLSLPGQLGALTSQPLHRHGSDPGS
CYP2D6, sequence (P10635 whole entry): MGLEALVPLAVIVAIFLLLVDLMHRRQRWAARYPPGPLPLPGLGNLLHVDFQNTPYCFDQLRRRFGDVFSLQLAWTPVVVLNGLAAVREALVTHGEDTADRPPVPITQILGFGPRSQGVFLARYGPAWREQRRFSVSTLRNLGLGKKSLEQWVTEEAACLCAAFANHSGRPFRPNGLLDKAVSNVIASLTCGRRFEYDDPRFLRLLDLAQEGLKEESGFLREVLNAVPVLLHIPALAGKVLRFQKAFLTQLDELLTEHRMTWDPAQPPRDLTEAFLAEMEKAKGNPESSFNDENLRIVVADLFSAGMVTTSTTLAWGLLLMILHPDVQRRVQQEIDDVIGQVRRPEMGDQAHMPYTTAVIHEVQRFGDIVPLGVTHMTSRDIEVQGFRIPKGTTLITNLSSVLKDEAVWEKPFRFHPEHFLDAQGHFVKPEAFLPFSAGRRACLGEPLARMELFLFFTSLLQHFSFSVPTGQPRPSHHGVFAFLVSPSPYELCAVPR
Vasopressin V1a receptor (Homo sapiens), sequence (P37288 whole entry, looked up): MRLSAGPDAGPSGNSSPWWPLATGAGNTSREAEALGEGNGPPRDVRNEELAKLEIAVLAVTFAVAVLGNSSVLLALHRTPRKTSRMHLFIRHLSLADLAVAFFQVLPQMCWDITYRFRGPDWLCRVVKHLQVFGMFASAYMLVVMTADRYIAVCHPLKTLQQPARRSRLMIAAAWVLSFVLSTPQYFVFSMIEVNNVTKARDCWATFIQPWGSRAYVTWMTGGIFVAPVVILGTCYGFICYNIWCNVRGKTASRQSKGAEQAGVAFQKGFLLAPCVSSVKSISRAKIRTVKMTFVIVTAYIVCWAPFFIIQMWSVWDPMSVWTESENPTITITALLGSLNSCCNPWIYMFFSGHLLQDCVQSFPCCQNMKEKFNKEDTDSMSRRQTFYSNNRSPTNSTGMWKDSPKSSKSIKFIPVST
Tyrosine-protein kinase Lck (Homo sapiens), sequence (P06239 2-509 limits assumed): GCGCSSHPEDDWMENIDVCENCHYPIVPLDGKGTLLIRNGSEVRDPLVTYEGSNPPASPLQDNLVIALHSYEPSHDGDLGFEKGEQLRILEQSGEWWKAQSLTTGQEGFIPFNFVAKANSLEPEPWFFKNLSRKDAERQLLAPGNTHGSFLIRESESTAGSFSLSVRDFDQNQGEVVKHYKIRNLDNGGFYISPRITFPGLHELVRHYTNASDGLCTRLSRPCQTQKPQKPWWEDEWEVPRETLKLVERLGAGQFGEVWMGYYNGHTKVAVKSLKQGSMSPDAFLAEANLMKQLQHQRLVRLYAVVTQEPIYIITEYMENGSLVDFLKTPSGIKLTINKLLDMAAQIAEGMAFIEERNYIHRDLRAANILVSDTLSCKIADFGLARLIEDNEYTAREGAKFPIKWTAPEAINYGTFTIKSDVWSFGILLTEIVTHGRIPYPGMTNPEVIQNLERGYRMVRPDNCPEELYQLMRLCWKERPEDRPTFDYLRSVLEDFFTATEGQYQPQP

O=C(c1ccc(F)c(Cl)c1)N1CCC(F)(CNCCOc2ccccn2)CC1
inhibition [1]: 29.9%
inhibition [2]: 3.8%
inhibition [3]: 12.9%
inhibition [4]: 34.6%
fraction unbound [5]: 0.068
Vd/F at 1 h [6]: 35.9 L/kg
inhibition [7]: 18.2%
Activity (Rattus norvegicus [8]): Tde
inhibition [9]: 9%
inhibition (Homo sapiens [10]): 7.2%
inhibition [11]: 2.2%
Activity [12]: < 50%
inhibition [13]: 6.3%
inhibition [14]: 94.3%
inhibition [15]: 0.9%
inhibition [16]: 25.5%
solubility at 200 µM [17]: 200 µM (≈ 82 µg/mL)
inhibition [18]: 39.7%
inhibition at 10 µM (MAO-A): -3.6%
Activity [19]: < 50%
Cmax at 1 h [20]: 124 ng/mL
solubility at 200 µM [21]: 192 µM (≈ 78.8 µg/mL)
ED (Rattus norvegicus [22]): 2.5 mg/kg
inhibition [23]: 8.8%
Papp A→B (in vitro): 25.9 ×10⁻⁶ cm/s
inhibition [24]: 38.2%
Activity (Rattus norvegicus [25]): inactive
inhibition (Homo sapiens [26]): -1.8%
inhibition at 10 µM (hERG (KCNH2)): 46.5%
Time [27]: 15 min
inhibition at 10 µM (CYP2D6): 15.9%
inhibition [28]: 7%
inhibition [29]: -3.1%
inhibition [30]: 12.1%
solubility at 200 µM [31]: 192 µM (≈ 78.8 µg/mL)
inhibition [32]: -2.9%
inhibition [33]: 11.9%
Activity [34]: < 50%
inhibition [35]: 13.2%
inhibition (MDCK-II): 6.5%
inhibition [36]: 11.8%
